In PMC3344384 (Chemistry & biology, 2011):
Where “and” joins values, the source holds several entries; their conditions need not be identical. Equal values may be shown once.

How the values were obtained:
Ub-PCNA in HEK293T cells = assay: Western blot of Ub-PCNA level in cells; format: cell-based, human
[1] = tested on: Ub-FANCD2 in HEK293T cells; assay: Western blot of Ub-FANCD2 level in cells; format: cell-based, human
USP1/UAF1 [2] = target: USP1/UAF1 (Homo sapiens, UniProt O94782); assay: gel-based K63-linked diubiquitin cleavage assay, USP1/UAF1; format: biochemical; conditions: IC50 USP1/UAF1, K63-linked diubiquitin substrate; NI = no significant inhibition at highest inhibitor concentration of 114 μM
Sequence of USP1/UAF1 (Homo sapiens, UniProt O94782) (O94782 whole entry): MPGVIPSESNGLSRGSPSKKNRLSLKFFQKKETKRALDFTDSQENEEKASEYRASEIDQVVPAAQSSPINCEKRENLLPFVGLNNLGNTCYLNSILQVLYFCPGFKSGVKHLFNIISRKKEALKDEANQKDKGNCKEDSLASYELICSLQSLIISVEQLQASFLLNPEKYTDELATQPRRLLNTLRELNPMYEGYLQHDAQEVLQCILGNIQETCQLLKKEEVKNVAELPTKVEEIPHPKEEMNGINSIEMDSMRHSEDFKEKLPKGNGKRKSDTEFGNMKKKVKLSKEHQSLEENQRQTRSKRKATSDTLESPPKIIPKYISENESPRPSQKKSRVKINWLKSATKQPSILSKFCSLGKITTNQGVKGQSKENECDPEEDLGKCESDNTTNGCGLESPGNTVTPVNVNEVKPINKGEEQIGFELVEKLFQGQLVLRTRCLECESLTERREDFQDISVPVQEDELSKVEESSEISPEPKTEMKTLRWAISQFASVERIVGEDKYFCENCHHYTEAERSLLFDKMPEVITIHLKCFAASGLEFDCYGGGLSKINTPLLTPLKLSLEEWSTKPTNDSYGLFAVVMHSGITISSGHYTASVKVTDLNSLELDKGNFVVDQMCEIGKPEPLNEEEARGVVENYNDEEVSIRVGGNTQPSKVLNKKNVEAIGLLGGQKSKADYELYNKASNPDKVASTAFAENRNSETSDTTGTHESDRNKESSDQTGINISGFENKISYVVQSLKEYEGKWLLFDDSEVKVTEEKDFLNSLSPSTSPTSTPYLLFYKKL
Sequence of USP1/UAF1 (Homo sapiens, UniProt O94782) (Q8TAF3 whole entry, further chain): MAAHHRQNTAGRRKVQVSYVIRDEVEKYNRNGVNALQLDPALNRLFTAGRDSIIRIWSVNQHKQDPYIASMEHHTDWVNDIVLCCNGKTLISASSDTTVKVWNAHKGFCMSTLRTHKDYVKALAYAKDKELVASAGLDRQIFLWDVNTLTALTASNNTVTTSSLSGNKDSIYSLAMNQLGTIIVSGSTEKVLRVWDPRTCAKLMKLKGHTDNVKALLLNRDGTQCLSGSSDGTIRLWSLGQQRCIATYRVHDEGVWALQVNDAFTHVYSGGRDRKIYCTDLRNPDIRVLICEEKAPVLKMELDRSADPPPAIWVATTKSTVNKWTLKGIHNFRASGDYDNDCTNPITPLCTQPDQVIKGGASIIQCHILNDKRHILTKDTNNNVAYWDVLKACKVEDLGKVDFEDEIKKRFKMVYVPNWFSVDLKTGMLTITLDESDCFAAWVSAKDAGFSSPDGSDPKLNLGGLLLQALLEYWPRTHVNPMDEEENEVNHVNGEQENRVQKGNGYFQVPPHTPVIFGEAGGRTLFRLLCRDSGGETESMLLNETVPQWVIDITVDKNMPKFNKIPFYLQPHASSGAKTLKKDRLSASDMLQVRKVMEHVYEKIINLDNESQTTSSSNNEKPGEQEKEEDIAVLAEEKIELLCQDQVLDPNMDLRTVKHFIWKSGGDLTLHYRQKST

USP46/UAF1 = USP46/UAF1 (Homo sapiens, UniProt P62068); assay: K63-linked diubiquitin cleavage assay, USP46/UAF1; format: biochemical
Sequence of USP46/UAF1 (P62068 whole entry): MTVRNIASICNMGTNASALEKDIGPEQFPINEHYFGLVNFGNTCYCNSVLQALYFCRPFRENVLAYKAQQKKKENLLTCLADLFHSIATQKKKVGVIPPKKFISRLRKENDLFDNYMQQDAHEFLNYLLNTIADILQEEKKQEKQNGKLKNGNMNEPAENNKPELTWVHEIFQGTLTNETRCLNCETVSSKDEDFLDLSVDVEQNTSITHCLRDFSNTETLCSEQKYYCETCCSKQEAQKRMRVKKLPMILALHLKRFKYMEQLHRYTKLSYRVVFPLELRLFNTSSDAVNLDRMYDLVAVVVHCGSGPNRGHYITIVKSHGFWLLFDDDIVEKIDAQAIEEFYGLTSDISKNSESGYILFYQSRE
Sequence of USP46/UAF1 (Q8TAF3 whole entry partner): as the sequence (Q8TAF3 whole entry, further chain) above

caspase-1 = target: T1, caspase-1 (Homo sapiens, UniProt P29466); assay: cysteine protease selectivity, caspase-1; format: biochemical
T1 sequence (P29466 120-297 limits assumed): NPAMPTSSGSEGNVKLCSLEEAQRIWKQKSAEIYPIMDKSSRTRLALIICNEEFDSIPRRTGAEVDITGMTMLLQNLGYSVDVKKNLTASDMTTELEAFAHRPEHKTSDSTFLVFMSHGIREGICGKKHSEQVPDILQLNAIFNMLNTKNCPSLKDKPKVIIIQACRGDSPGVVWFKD
T1 sequence (P29466 317-404 limits assumed): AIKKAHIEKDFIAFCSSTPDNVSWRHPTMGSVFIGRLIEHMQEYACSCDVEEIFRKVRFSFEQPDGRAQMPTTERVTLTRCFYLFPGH

caspase-3 = target: T2, caspase-3 (Homo sapiens, UniProt P42574); assay: cysteine protease selectivity, caspase-3; format: biochemical
T2 sequence (P42574 29-175 limits assumed): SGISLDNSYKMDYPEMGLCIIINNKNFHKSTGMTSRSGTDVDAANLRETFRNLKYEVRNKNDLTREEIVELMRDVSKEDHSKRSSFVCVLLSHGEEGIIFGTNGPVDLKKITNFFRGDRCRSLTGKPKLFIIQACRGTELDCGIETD
T2 sequence (P42574 176-277 limits assumed): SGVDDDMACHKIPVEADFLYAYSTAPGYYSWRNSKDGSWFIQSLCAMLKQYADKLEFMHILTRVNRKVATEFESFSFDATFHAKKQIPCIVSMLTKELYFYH

caspase-6 = target: T3, caspase-6 (Homo sapiens, UniProt P55212); assay: cysteine protease selectivity, caspase-6; format: biochemical
T3 sequence (P55212 24-179 limits assumed): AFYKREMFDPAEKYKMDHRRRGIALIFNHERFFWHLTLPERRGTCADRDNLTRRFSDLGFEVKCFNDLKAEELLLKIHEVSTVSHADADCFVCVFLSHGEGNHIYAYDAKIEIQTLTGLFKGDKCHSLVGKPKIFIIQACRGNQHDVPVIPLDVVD
T3 sequence (P55212 194-293 limits assumed): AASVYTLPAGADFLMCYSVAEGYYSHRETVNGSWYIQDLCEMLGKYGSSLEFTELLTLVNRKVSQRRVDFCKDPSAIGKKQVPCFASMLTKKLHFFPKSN

papain = target: T4, papain (Carica papaya, UniProt P00784); assay: cysteine protease selectivity, papain; format: biochemical
T4 sequence (P00784 134-345): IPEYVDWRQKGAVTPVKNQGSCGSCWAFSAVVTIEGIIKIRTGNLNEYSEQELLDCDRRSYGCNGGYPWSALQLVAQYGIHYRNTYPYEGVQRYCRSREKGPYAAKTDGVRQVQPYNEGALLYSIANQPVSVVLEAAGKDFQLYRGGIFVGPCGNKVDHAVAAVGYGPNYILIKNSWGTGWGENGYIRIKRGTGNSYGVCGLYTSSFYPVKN

USP5 = target: T5, USP5 (Homo sapiens, UniProt P45974); assay: K63-linked diubiquitin cleavage assay, USP5
T5 sequence (P45974 1-858): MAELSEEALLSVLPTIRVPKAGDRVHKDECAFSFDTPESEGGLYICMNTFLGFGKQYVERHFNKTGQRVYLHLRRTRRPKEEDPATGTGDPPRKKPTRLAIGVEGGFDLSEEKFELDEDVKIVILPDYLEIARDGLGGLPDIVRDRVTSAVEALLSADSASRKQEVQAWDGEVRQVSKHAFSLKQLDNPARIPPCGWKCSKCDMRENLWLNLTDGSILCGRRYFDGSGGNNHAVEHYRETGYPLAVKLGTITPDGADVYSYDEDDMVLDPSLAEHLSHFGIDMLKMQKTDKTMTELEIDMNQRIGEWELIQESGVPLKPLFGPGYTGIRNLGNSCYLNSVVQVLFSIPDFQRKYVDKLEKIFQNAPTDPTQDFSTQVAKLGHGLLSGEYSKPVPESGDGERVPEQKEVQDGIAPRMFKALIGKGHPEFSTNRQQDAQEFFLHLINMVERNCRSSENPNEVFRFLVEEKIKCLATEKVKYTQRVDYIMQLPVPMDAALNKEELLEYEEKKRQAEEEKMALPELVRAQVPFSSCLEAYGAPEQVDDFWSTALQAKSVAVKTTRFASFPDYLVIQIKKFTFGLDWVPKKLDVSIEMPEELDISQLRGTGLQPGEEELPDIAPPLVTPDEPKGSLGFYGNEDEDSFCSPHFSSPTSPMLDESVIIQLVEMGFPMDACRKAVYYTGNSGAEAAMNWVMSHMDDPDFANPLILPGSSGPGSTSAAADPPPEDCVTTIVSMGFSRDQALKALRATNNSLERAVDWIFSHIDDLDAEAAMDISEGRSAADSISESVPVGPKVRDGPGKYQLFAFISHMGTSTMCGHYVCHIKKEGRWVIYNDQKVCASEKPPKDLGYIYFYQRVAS

USP1/UAF1 [3] = target: USP1/UAF1 (Homo sapiens, UniProt O94782+Q8TAF3); assay: reversibility of inhibition by rapid dilution; conditions: incubation at 10 times IC50, 100-fold rapid dilution
Sequence of USP1/UAF1 (Homo sapiens, UniProt O94782+Q8TAF3) (O94782 whole entry): as the sequence (O94782 whole entry) above
Sequence of USP1/UAF1 (Homo sapiens, UniProt O94782+Q8TAF3) (Q8TAF3 whole entry): as the sequence (Q8TAF3 whole entry, further chain) above

For `N.N.[Cl][Pt][Cl]` [Cisplatin, cisplatin], the “monoubiquitination of PCNA, single agent” value (Ub-PCNA in HEK293T cells) was “a small, but significant, percent of Ub-PCNA was detected” and the “percentage of FANCD2 monoubiquitinated” value [1] was “approximately 25%”.
In the case of `CC(=O)c1c(O)c(C)c(O)c(Cc2c(O)c3c(c(C(=O)/C=C/c4ccccc4)c2O)OC(C)(C)C=C3)c1O` [Rottlerin, rottlerin], the IC50 (USP1/UAF1 [2]) is reported as ≤ 8 µM and 6 to 34 µM, the IC50 (USP46/UAF1) is reported as 15 ± 1 µM and the IC50 (caspase-1) is reported as 5 to 45 µM. The IC50 (caspase-3) was 5 to 45 µM, the IC50 (caspase-6) was 5 to 45 µM and the IC50 (papain) was 5 to 45 µM. For the same compound, the IC50 (USP5) was greater than 114 µM and the reversibility of inhibition (USP1/UAF1 [3]) was “irreversible inhibitor”.
